Data: PubChem BioAssay AID330 (DTP/NCI, 2004)
Values joined by “and” are separate entries in the source; they are usually repeats but may differ in a detail not shown here. Equal values may be shown once. Toxic doses and inconclusive results are not listed.

Test system: P388 leukemia ip, CD2F1 mice, survival T/C
Assay: NCI In Vivo Anticancer Drug Screen. Data for tumor model P388 Leukemia (intraperitoneal) in CD2F1 (CDF1) mice
Conditions: endpoint: median survival time, higher = longer survival
Summary of the method: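 Mice carrying the transplanted tumor received test compound or vehicle. Survival was recorded in each group, and the value is the treated-group measurement divided by that of the vehicle-treated control group.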

[1] = dose: 50.0 mg/kg/injection, schedule: Q01DX009 (ip), vehicle: saline
[2] = dose: 50.0 mg/kg/injection, schedule: Q01DX005 (ip), vehicle: saline with Tween-80
[3] = dose: 200.0 mg/kg/injection, schedule: Q01DX005 (ip), vehicle: saline with Tween-80
[4] = dose: 50.0 mg/kg/injection, schedule: Q01DX009 (ip), vehicle: Klucel (hydroxypropylcellulose) (HPC)
[5] = dose: 100.0 mg/kg/injection, schedule: Q01DX009 (ip), vehicle: Klucel (hydroxypropylcellulose) (HPC)
[6] = dose: 200.0 mg/kg/injection, schedule: Q01DX009 (ip), vehicle: Klucel (hydroxypropylcellulose) (HPC)
[7] = dose: 100.0 mg/kg/injection, schedule: Q01DX005 (ip), vehicle: saline with Tween-80
[8] = dose: 50.0 mg/kg/injection, schedule: Q01DX005 (ip), vehicle: Klucel (hydroxypropylcellulose) (HPC)
[9] = dose: 100.0 mg/kg/injection, schedule: Q01DX005 (ip), vehicle: Klucel (hydroxypropylcellulose) (HPC)
[10] = dose: 100.0 mg/kg/injection, schedule: Q04DX002 (ip), vehicle: Klucel (hydroxypropylcellulose) (HPC)
[11] = dose: 200.0 mg/kg/injection, schedule: Q04DX002 (ip), vehicle: Klucel (hydroxypropylcellulose) (HPC)
[12] = dose: 200.0 mg/kg/injection, schedule: Q01DX005 (ip), vehicle: Klucel (hydroxypropylcellulose) (HPC)
[13] = dose: 60.0 mg/kg/injection, schedule: Q01DX005 (ip), vehicle: saline with Tween-80
[14] = dose: 120.0 mg/kg/injection, schedule: Q01DX005 (ip), vehicle: saline with Tween-80

For `C/C=C(\C)C(=O)OC1C2C(C)=CC(=O)C(O)C2(C)C2C3(O)OCC24C1OC(=O)C(O)C4C(C)C3O` (centres undefined), the T/C (dose: 2.5 mg/kg/injection, schedule: Q01DX005 (ip), vehicle: saline) was 154 % of control, the T/C (dose: 7.5 mg/kg/injection, schedule: Q01DX005 (ip), vehicle: Klucel (hydroxypropylcellulose) (HPC)) was 175 % of control and the T/C (dose: 10.0 mg/kg/injection, schedule: Q01DX005 (ip), vehicle: saline) was 154 % of control. For the same compound, the T/C (dose: 15.0 mg/kg/injection, schedule: Q01DX005 (ip), vehicle: Klucel (hydroxypropylcellulose) (HPC)) was 180 % of control, the T/C (dose: 15.0 mg/kg/injection, schedule: Q01DX005 (ip), vehicle: saline) was 154 % of control and the T/C (dose: 30.0 mg/kg/injection, schedule: Q01DX005 (ip), vehicle: Klucel (hydroxypropylcellulose) (HPC)) was 189 % of control.

With `CCCCC(CC)(CCN)CCCC` the T/C (dose: 5.0 mg/kg/injection, schedule: Q01DX009 (ip), vehicle: suspension in saline) was 107 % of control, the T/C (dose: 10.0 mg/kg/injection, schedule: Q01DX009 (ip), vehicle: suspension in saline) was 103 % of control and the T/C (dose: 20.0 mg/kg/injection, schedule: Q01DX009 (ip), vehicle: suspension in saline) was 90 % of control.

With `CN1CC[C@]23c4c5ccc(O)c4O[C@H]2C(=O)CC[C@H]3[C@H]1C5` the T/C (dose: 12.5 mg/kg/injection, schedule: Q01DX005 (iv), vehicle: saline) was 99 % of control and 102 % of control, the T/C (dose: 12.5 mg/kg/injection, schedule: Q01DX009 (ip), vehicle: saline) was 108 % of control and the T/C (dose: 25.0 mg/kg/injection, schedule: Q01DX005 (iv), vehicle: saline) was 102 % of control and 106 % of control. For the same compound, the T/C (dose: 25.0 mg/kg/injection, schedule: Q01DX009 (ip), vehicle: saline) was 111 % of control, the T/C (dose: 50.0 mg/kg/injection, schedule: Q01DX005 (iv), vehicle: saline) was 99 % of control and 102 % of control and the T/C [1] was 103 % of control and 97 % of control. The T/C (dose: 100.0 mg/kg/injection, schedule: Q01DX005 (iv), vehicle: saline) was 101 % of control and the T/C (dose: 200.0 mg/kg/injection, schedule: Q01DX005 (iv), vehicle: saline) was 102 % of control.

For `CCCCCCCCCCCCCCCCC1CCCC1C1CCCC1` (centres undefined), the T/C (dose: 12.5 mg/kg/injection, schedule: Q01DX001 (ip), vehicle: saline with Tween-80) was 104 % of control, the T/C (dose: 25.0 mg/kg/injection, schedule: Q01DX001 (ip), vehicle: saline with Tween-80) was 104 % of control and the T/C (dose: 50.0 mg/kg/injection, schedule: Q01DX001 (ip), vehicle: saline with Tween-80) was 104 % of control.

For `O=S(=O)(CBr)OCCCl`, the T/C [2] was 120 % of control, the T/C (dose: 150.0 mg/kg/injection, schedule: Q01DX005 (ip), vehicle: saline with Tween-80) was 159 % of control and the T/C [3] was 200 % of control.

For `CC(C)(C)C(=O)Nc1ccc(S(=O)(=O)Nc2ccc(N)cc2O)cc1`, the T/C [4] was 112 % of control, the T/C [5] was 97 % of control and the T/C [6] was 115 % of control.

In the case of `O=C(CCC(=O)ON1C(=O)CCC1=O)OCCOC(=O)CCC(=O)ON1C(=O)CCC1=O`, the T/C [2] is reported as 116 % of control, the T/C [7] is reported as 114 % of control and the T/C [3] is reported as 98 % of control.

For `CC(=O)O[C@@H]1C[C@@]2(C)C(CC(=O)[C@@H](C)[C@@H]2CC(=O)c2ccoc2)[C@@H](CO)[C@@H]1O` (some centres undefined), the T/C (dose: 12.5 mg/kg/injection, schedule: Q01DX005 (ip), vehicle: Klucel (hydroxypropylcellulose) (HPC)) was 103 % of control, the T/C (dose: 25.0 mg/kg/injection, schedule: Q01DX005 (ip), vehicle: Klucel (hydroxypropylcellulose) (HPC)) was 100 % of control and the T/C [8] was 109 % of control. The T/C [9] was 106 % of control, the T/C (dose: 100.0 mg/kg/injection, schedule: Q01DX005 (ip), vehicle: Klucel + Tween-80) was 107 % of control and the T/C (dose: 200.0 mg/kg/injection, schedule: Q01DX005 (ip), vehicle: Klucel + Tween-80) was 107 % of control. The T/C (dose: 400.0 mg/kg/injection, schedule: Q01DX005 (ip), vehicle: Klucel + Tween-80) was 101 % of control.

In the case of `C=CCc1cc(OC)c(OCC=O)c(OC)c1`, the T/C [10] is reported as 99 % of control and the T/C [11] is reported as 96 % of control.

With `CC1=CCC2(C)C(=O)CC3(C)C(CCC4C5(C)CCC(=O)C(C)(C)C5CCC43C)C2C1C` (centres undefined) the T/C (dose: 1.75 mg/kg/injection, schedule: Q01DX009 (ip), vehicle: saline) was 103 % of control and 121 % of control, the T/C (dose: 3.5 mg/kg/injection, schedule: Q01DX009 (ip), vehicle: saline) was 99 % of control and 114 % of control and the T/C (dose: 7.0 mg/kg/injection, schedule: Q01DX009 (ip), vehicle: saline) was 110 % of control and 118 % of control.

With `CCOC(=O)COc1cc2c(cc1C(CC)c1ccccc1)OCO2` (centres undefined) the T/C [8] was 97 % of control, the T/C [9] was 102 % of control and the T/C [12] was 102 % of control.

For `CSC(=N\N=C(/C)c1ccc(Br)cc1)/N=C/N(C)C`, the T/C [13] was 100 % of control, the T/C [14] was 102 % of control and the T/C (dose: 240.0 mg/kg/injection, schedule: Q01DX005 (ip), vehicle: saline with Tween-80) was 102 % of control.

`COC1NC(=O)Oc2c(F)cccc21` (centres undefined) was tested, and the T/C (dose: 12.5 mg/kg/injection, schedule: Q01DX009 (ip), vehicle: Klucel (hydroxypropylcellulose) (HPC)) was 100 % of control, the T/C (dose: 25.0 mg/kg/injection, schedule: Q01DX009 (ip), vehicle: Klucel (hydroxypropylcellulose) (HPC)) was 95 % of control and the T/C [4] was 99 % of control. The T/C [5] was 95 % of control and the T/C [6] was 104 % of control.

For `CC(C(=O)O)[As](=O)(O)O` (centres undefined), the T/C (dose: 100.0 mg/kg/injection, schedule: Q04DX003 (ip), vehicle: saline) was 102 % of control, the T/C (dose: 200.0 mg/kg/injection, schedule: Q04DX003 (ip), vehicle: saline) was 99 % of control and the T/C (dose: 400.0 mg/kg/injection, schedule: Q04DX003 (ip), vehicle: saline) was 98 % of control.

`O=c1c(-c2ccccc2)nnc2sc(-c3cccc(Cl)c3)nn12` was tested, and the T/C (dose: 50.0 mg/kg/injection, schedule: Q04DX002 (ip), vehicle: Klucel (hydroxypropylcellulose) (HPC)) was 98 % of control, the T/C [10] was 93 % of control and the T/C [11] was 90 % of control.

With `COc1ccc(C(=O)N/N=C2\C(=O)c3c(C)cc(C)cc3CC2(C)C)cc1` the T/C [1] was 100 % of control, the T/C (dose: 100.0 mg/kg/injection, schedule: Q01DX009 (ip), vehicle: saline) was 100 % of control and the T/C (dose: 200.0 mg/kg/injection, schedule: Q01DX009 (ip), vehicle: saline) was 94 % of control.

`CC1CCC2(CC1=O)C(C)CC(=O)C2C(C)C` (centres undefined) was tested, and the T/C [4] was 112 % of control, the T/C [5] was 114 % of control and the T/C (dose: 100.0 mg/kg/injection, schedule: Q04DX003 (ip), vehicle: other) was 95 % of control. For the same compound, the T/C [6] was 98 % of control, the T/C (dose: 200.0 mg/kg/injection, schedule: Q04DX003 (ip), vehicle: other) was 90 % of control and the T/C (dose: 400.0 mg/kg/injection, schedule: Q04DX003 (ip), vehicle: other) was 100 % of control.

With `CC(=O)c1c(O)c(C)c(O)c2c1OC1=CC(=O)/C(=C(/C)N)C(=O)C12C` (centres undefined) the T/C (dose: 6.25 mg/kg/injection, schedule: Q01DX009 (ip), vehicle: gum acacia) was 107 % of control and 112 % of control, the T/C (dose: 12.5 mg/kg/injection, schedule: Q01DX009 (ip), vehicle: gum acacia) was 100 % of control and 105 % of control and the T/C (dose: 25.0 mg/kg/injection, schedule: Q01DX009 (ip), vehicle: gum acacia) was 102 % of control and 109 % of control. For the same compound, the T/C (dose: 50.0 mg/kg/injection, schedule: Q01DX009 (ip), vehicle: gum acacia) was 100 % of control and 86 % of control, the T/C (dose: 100.0 mg/kg/injection, schedule: Q01DX009 (ip), vehicle: gum acacia) was 100 % of control and 106 % of control and the T/C (dose: 200.0 mg/kg/injection, schedule: Q01DX009 (ip), vehicle: gum acacia) was 102 % of control and 110 % of control.

In the case of `CCCCCCNC(=O)C1C(=O)N(CCCCCC)C(=O)/C1=N\N=C(N)N` (centres undefined), the T/C [13] is reported as 109 % of control and the T/C [14] is reported as 109 % of control.

With `COCOCCC1C=CCC2C(=O)C=C(OC)C(O)C12C` (centres undefined) the T/C [8] was 108 % of control, the T/C [9] was 97 % of control and the T/C [12] was 101 % of control.

`CSC(=S)n1nc(C)c(N=Nc2cccc(C)c2C)c1C` was tested, and the T/C [10] was 96 % of control, the T/C [11] was 96 % of control and the T/C (dose: 400.0 mg/kg/injection, schedule: Q04DX002 (ip), vehicle: Klucel (hydroxypropylcellulose) (HPC)) was 100 % of control.

`CC(=O)Nc1ccc(/C=N/NC(=O)CNC(=O)c2ccccc2)cc1` was tested, and the T/C [13] was 95 % of control and the T/C [14] was 86 % of control.

For `CCn1c2ccccc2c2cc(N=Nc3cc(CN(C)C)c(O)c4ncccc34)ccc21`, the T/C [2] was 100 % of control, the T/C [7] was 100 % of control and the T/C [3] was 100 % of control.

`CCCCN(CCCC)CCC(=O)c1ccc(OC)c2ccccc12` was tested, and the T/C (dose: 12.5 mg/kg/injection, schedule: Q01DX009 (ip), vehicle: saline with Tween-80) was 110 % of control, the T/C (dose: 25.0 mg/kg/injection, schedule: Q01DX009 (ip), vehicle: saline with Tween-80) was 119 % of control and the T/C (dose: 50.0 mg/kg/injection, schedule: Q01DX009 (ip), vehicle: saline with Tween-80) was 111 % of control.
